Data from PMC7822874, “Chemoprotective antimalarials identified through quantitative high-throughput screening of Plasmodium blood and liver stage parasites” (Scientific Reports, 2021).
Read-outs that look alike come from different tables or passages of the source.

What was measured:
[1] = tested on: Plasmodium falciparum Dd2 asexual blood stage parasites; experiment: microbe, parasite or virus in culture; set-up: species or system Plasmodium falciparum Dd2 in human erythrocytes; single determination (one 11-point concentration-response curve); conditions: Plasmodium falciparum, DD2, Erythrocyte, 72 h; read-out: AC50
[2] = in vitro; conditions: human
[3] = tested on: HepG2-A16-CD81EGFP cells
[4] = tested on: P. berghei-ANKA-GFP-LucCON liver stage parasites in HepG2-A16-CD81EGFP cells; experiment: P. berghei liver stage Pb-Luc assay, Method 1 (UCSD, 1536-well); format: cell-based, Plasmodium berghei; conditions: Plasmodium berghei, 48 h, average of 2 wells, 1536-well plate; for activity at 1 µM: nominal 1 uM (10 mM stock), […] for 15 mM, 1.2 uM for 12 mM, 2 uM for 20 mM stock; for activity at 3 µM: nominal 3 uM (10 mM stock), 4.5 uM for 15 mM, 3.6 uM for 12 mM, 6 uM for 20 mM stock; on all read-outs here: reference of the scale not given here
[5] = HepG2-A16-CD81EGFP cells, uninfected
[6] = nominal 1 uM (10 mM stock), […] for 15 mM, 1.2 uM for 12 mM, 2 uM for 20 mM stock, average of 2 wells, repeat 2
[7] = nominal 3 uM (10 mM stock), 4.5 uM for 15 mM, 3.6 uM for 12 mM, 6 uM for 20 mM stock, average of 2 wells, repeat 2
[8] = repeat 1, read-out: Pb-Luc signal, 1 uM, repeat 1
[9] = repeat 2, read-out: Pb-Luc signal, 1 uM, repeat 2
[10] = repeat 3, read-out: Pb-Luc signal, 1 uM, repeat 3
[11] = repeat 1, read-out: Pb-Luc signal, 3 uM, repeat 1
[12] = repeat 2, read-out: Pb-Luc signal, 3 uM, repeat 2
[13] = repeat 3, read-out: Pb-Luc signal, 3 uM, repeat 3

| SMILES | AC50 [1] | viability at 48 h, 1 µM [2, 5] | viability at 48 h, 3 µM [2, 5] | HepG2 viability signal, 1 uM, repeat 2 [3, 6] | HepG2 viability signal, 3 uM, repeat 2 [3, 7] | activity at 1 µM [4, 8] | activity at 1 µM [4, 9] | activity at 1 µM [4, 10] | activity at 3 µM [4, 11] | activity at 3 µM [4, 12] | activity at 3 µM [4, 13] | viability at 48 h, 1 µM [2] | viability at 48 h, 3 µM [2] | HepG2 viability signal, 1 uM, repeat 2 ([3]; human, 48 h, 1 µM) | HepG2 viability signal, 3 uM, repeat 2 ([3]; human, 48 h, 3 µM) |
| --- | --- | --- | --- | --- | --- | --- | --- | --- | --- | --- | --- | --- | --- | --- | --- |
| O[C@H]1CC[C@@H](Cc2cc(-c3ccc(F)cc3)on2)O[C@@H]1CNC1CCCCC1 [NCGC00401034-01] | 2430 nM | 104% | 107% | 105.13% | 100.53% | 123% | 102% | 154% | 112% | 106% | 134% | – | – | – | – |
| CCCOC(=O)c1c(NC(=O)C(C)Sc2nc(-c3ccccc3)cc(C(F)(F)F)n2)sc(C(=O)N(C)C)c1C (stereo not drawn) [NCGC00101274-01] | 1680 nM | 98.8% | 100% | 104.19% | 103.13% | 94.7% | 104% | 101% | 61.7% | 98.3% | 113% | – | – | – | – |
| O=C(Nc1ccc2c(N3CCOCC3)ncnc2c1)c1ccc(Br)o1 [NCGC00425547-01] | 2660 nM | 110% | 106% | 103.01% | 102.12% | 126% | 99.1% | 129% | 123% | 89.4% | 131% | – | – | – | – |
| CC1=C(C(=O)Nc2ccc(C)cc2C)C(c2cc(Br)ccc2F)n2ncc(C(=O)Nc3ccc(C)cc3)c2N1 (stereo not drawn) [NCGC00126328-01] | 1500 nM | 100% | 107% | 98.10% | 99.55% | 99.2% | 113% | 121% | 61.3% | 103% | 73.4% | – | – | – | – |
| CC1=C[C@@H](CN(C)C)[C@H](C(C)C)C[C@H]1Cc1nc2ncc(Cl)cc2[nH]1 [NCGC00421128-01] | 21700 nM | 106% | 108% | 100.56% | 100.80% | 85.6% | 76% | 112% | 59.7% | 57.2% | 82.1% | – | – | – | – |
| Cc1ccc(CN2COc3cc(C)c4c(oc(=O)c5ccccc54)c3C2)cc1 [NCGC00116336-01] | 1330 nM | 101% | 105% | 104.57% | 104.67% | 94.2% | 106% | 96.8% | 71.6% | 78.2% | 92.4% | – | – | – | – |
| CCc1ccc(Oc2c(C(F)(F)F)oc3c(CN4CCN(CC)CC4)c(O)ccc3c2=O)cc1 [NCGC00101506-01] | 376 nM | 92.4% | 95.7% | 92.46% | 94.20% | 82.1% | 87.1% | 67% | 64.2% | 90% | 40.1% | – | – | – | – |
| Cn1nc(C(=O)NCC(=O)N2CCCCCCNC(=O)CC2c2ccccc2)c2ccccc21 (stereo not drawn) [NCGC00467428-01] | 2110 nM | 108% | 106% | 105.85% | 101.81% | 90.2% | 74% | 75.4% | 105% | 88.2% | 105% | – | – | – | – |
| COc1ccc(-c2cc([C@H]3CN4CC[C@H]3C[C@@H]4CN[S+](=O)([O-])c3ccc(Cl)cc3)n(C)n2)cc1OC [NCGC00399828-01] | 2990 nM | – | – | – | – | 68.5% | 88.1% | 52.2% | 40.7% | 77% | 89.6% | 98.9% | 99.9% | 102.24% | 102.23% |
